From PubChem BioAssay AID2060912 (Molecular Pharmacology Branch, DTP, NCI, 2025)

Test system: HUVEC/MSC spheroids viability
Assay: Human HUVEC/MSC cell line growth inhibition [KRAS2];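 for viability, T/C: percent of DMSO vehicle control luminescence so 100% = untreated viability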
Conditions: for IC50: curve of first compound; for viability, T/C: stronger effect = lower value
Method in brief: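 Growth/viability of tumour-free HUVEC–hMSC spheroids was measured after exposure to targeted small molecules and KRAS inhibitors, singly or in combination. Agents were diluted in half-log steps from Cmax-based top concentrations, capped at 10 microM without known Cmax.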

[1] = second compound 0.0316 µM, first compound 0.0316 µM
[2] = second compound 0.0316 µM, first compound 0.1 µM
[3] = second compound 0.1 µM, first compound 0.0316 µM
[4] = second compound 0.1 µM, first compound 0.1 µM
[5] = second compound 0.316 µM, first compound 0.0316 µM
[6] = second compound 0.316 µM, first compound 0.1 µM
[7] = second compound 1 µM, first compound 0.0316 µM
[8] = second compound 1 µM, first compound 0.1 µM
[9] = second compound 3.16 µM, first compound 0.0316 µM
[10] = second compound 3.16 µM, first compound 0.1 µM
[11] = second compound 10 µM, first compound 0.0316 µM
[12] = second compound 10 µM, first compound 0.1 µM
[13] = second compound 0.0316 µM, first compound 0.316 µM
[14] = second compound 0.0316 µM, first compound 1 µM
[15] = second compound 0.0316 µM, first compound 3.16 µM
[16] = second compound 0.0316 µM, first compound 10 µM
[17] = second compound 0.1 µM, first compound 0.316 µM
[18] = second compound 0.1 µM, first compound 1 µM
[19] = second compound 0.1 µM, first compound 3.16 µM
[20] = second compound 0.1 µM, first compound 10 µM
[21] = second compound 0.316 µM, first compound 0.316 µM
[22] = second compound 0.316 µM, first compound 1 µM
[23] = second compound 0.316 µM, first compound 3.16 µM
[24] = second compound 0.316 µM, first compound 10 µM
[25] = second compound 1 µM, first compound 0.316 µM
[26] = second compound 1 µM, first compound 1 µM
[27] = second compound 1 µM, first compound 3.16 µM
[28] = second compound 1 µM, first compound 10 µM
[29] = second compound 3.16 µM, first compound 0.316 µM
[30] = second compound 3.16 µM, first compound 1 µM
[31] = second compound 3.16 µM, first compound 3.16 µM
[32] = second compound 3.16 µM, first compound 10 µM
[33] = second compound 10 µM, first compound 0.316 µM
[34] = second compound 10 µM, first compound 1 µM
[35] = second compound 10 µM, first compound 3.16 µM
[36] = second compound 10 µM, first compound 10 µM

## CN(C)C/C=C/C(=O)Nc1cc2c(Nc3ccc(F)c(Cl)c3)ncnc2cc1O[C@H]1CCOC1 + CNCc1ccccc1-c1csc(C(C)Nc2nc(C)nc3cc(OC)c(OC)cc23)c1
Second compound 0.0316 µM
  IC50: > 0.1 µM
Second compound 0.1 µM
  IC50: > 0.1 µM
Second compound 0.316 µM
  IC50: > 0.1 µM
Second compound 1 µM
  IC50: > 0.1 µM
Second compound 3.16 µM
  IC50: > 0.1 µM
Second compound 10 µM
  IC50: < 0.000316 µM
Second compound 0.0316 µM, first compound 0.000316 µM
  viability, T/C: 100%
Second compound 0.0316 µM, first compound 0.001 µM
  viability, T/C: 89.5%
Second compound 0.0316 µM, first compound 0.00316 µM
  viability, T/C: 90.5%
Second compound 0.0316 µM, first compound 0.01 µM
  viability, T/C: 91.2%
[1]
  viability, T/C: 74%
[2]
  viability, T/C: 86%
Second compound 0.1 µM, first compound 0.000316 µM
  viability, T/C: 89.7%
Second compound 0.1 µM, first compound 0.001 µM
  viability, T/C: 105%
Second compound 0.1 µM, first compound 0.00316 µM
  viability, T/C: 77.4%
Second compound 0.1 µM, first compound 0.01 µM
  viability, T/C: 76.7%
[3]
  viability, T/C: 89.5%
[4]
  viability, T/C: 74.8%
Second compound 0.316 µM, first compound 0.000316 µM
  viability, T/C: 85.2%
Second compound 0.316 µM, first compound 0.001 µM
  viability, T/C: 93.2%
Second compound 0.316 µM, first compound 0.00316 µM
  viability, T/C: 72.5%
Second compound 0.316 µM, first compound 0.01 µM
  viability, T/C: 78.1%
[5]
  viability, T/C: 96.6%
[6]
  viability, T/C: 68.8%
Second compound 1 µM, first compound 0.000316 µM
  viability, T/C: 78.3%
Second compound 1 µM, first compound 0.001 µM
  viability, T/C: 73.7%
Second compound 1 µM, first compound 0.00316 µM
  viability, T/C: 86.5%
Second compound 1 µM, first compound 0.01 µM
  viability, T/C: 73.5%
[7]
  viability, T/C: 72.7%
[8]
  viability, T/C: 59.8%
Second compound 3.16 µM, first compound 0.000316 µM
  viability, T/C: 89.2%
Second compound 3.16 µM, first compound 0.001 µM
  viability, T/C: 94.4%
Second compound 3.16 µM, first compound 0.00316 µM
  viability, T/C: 80.4%
Second compound 3.16 µM, first compound 0.01 µM
  viability, T/C: 89.5%
[9]
  viability, T/C: 65.2%
[10]
  viability, T/C: 84.4%
Second compound 10 µM, first compound 0.000316 µM
  viability, T/C: 0.33%
Second compound 10 µM, first compound 0.001 µM
  viability, T/C: 0.35%
Second compound 10 µM, first compound 0.00316 µM
  viability, T/C: 0.37%
Second compound 10 µM, first compound 0.01 µM
  viability, T/C: 0.33%
[11]
  viability, T/C: 0.37%
[12]
  viability, T/C: 0.65%

## COC(=O)c1ccc2c(C(=Nc3ccc(N(C)C(=O)CN4CCN(C)CC4)cc3)c3ccccc3)c(O)[nH]c2c1 + CNCc1ccccc1-c1csc(C(C)Nc2nc(C)nc3cc(OC)c(OC)cc23)c1
Second compound 0.0316 µM
  IC50: 1.55 µM
Second compound 0.1 µM
  IC50: 1.47 µM
Second compound 0.316 µM
  IC50: 1.42 µM
Second compound 1 µM
  IC50: 1.19 µM
Second compound 3.16 µM
  IC50: 0.988 µM
Second compound 10 µM
  IC50: < 0.0316 µM
[1]
  viability, T/C: 77%
[2]
  viability, T/C: 117%
[13]
  viability, T/C: 76.5%
[14]
  viability, T/C: 53.4%
[15]
  viability, T/C: 37.9%
[16]
  viability, T/C: 0.32%
[3]
  viability, T/C: 76.7%
[4]
  viability, T/C: 103%
[17]
  viability, T/C: 87.3%
[18]
  viability, T/C: 48.4%
[19]
  viability, T/C: 36.9%
[20]
  viability, T/C: 0.41%
[5]
  viability, T/C: 74.6%
[6]
  viability, T/C: 125%
[21]
  viability, T/C: 90.9%
[22]
  viability, T/C: 53.1%
[23]
  viability, T/C: 31.9%
[24]
  viability, T/C: 0.39%
[7]
  viability, T/C: 72.9%
[8]
  viability, T/C: 85.9%
[25]
  viability, T/C: 72.3%
[26]
  viability, T/C: 57.5%
[27]
  viability, T/C: 10.4%
[28]
  viability, T/C: 0.24%
[9]
  viability, T/C: 103%
[10]
  viability, T/C: 95.8%
[29]
  viability, T/C: 84%
[30]
  viability, T/C: 53.1%
[31]
  viability, T/C: 0.34%
[32]
  viability, T/C: 0.27%
[11]
  viability, T/C: 0.37%
[12]
  viability, T/C: 0.4%
[33]
  viability, T/C: 0.49%
[34]
  viability, T/C: 0.51%
[35]
  viability, T/C: 0.34%
[36]
  viability, T/C: 0.2%

## O=C(c1cc(Cc2n[nH]c(=O)c3ccccc23)ccc1F)N1CCN(C(=O)C2CC2)CC1 + CNCc1ccccc1-c1csc(C(C)Nc2nc(C)nc3cc(OC)c(OC)cc23)c1
Second compound 0.0316 µM
  IC50: > 10 µM
Second compound 0.1 µM
  IC50: > 10 µM
Second compound 0.316 µM
  IC50: > 10 µM
Second compound 1 µM
  IC50: > 10 µM
Second compound 3.16 µM
  IC50: > 10 µM
Second compound 10 µM
  IC50: < 0.0316 µM
[1]
  viability, T/C: 95.6%
[2]
  viability, T/C: 92.6%
[13]
  viability, T/C: 93.1%
[14]
  viability, T/C: 84.2%
[15]
  viability, T/C: 80.3%
[16]
  viability, T/C: 72%
[3]
  viability, T/C: 87.1%
[4]
  viability, T/C: 91.4%
[17]
  viability, T/C: 92.1%
[18]
  viability, T/C: 78.2%
[19]
  viability, T/C: 81.9%
[20]
  viability, T/C: 96%
[5]
  viability, T/C: 84.6%
[6]
  viability, T/C: 92.2%
[21]
  viability, T/C: 76.7%
[22]
  viability, T/C: 92.3%
[23]
  viability, T/C: 89.8%
[24]
  viability, T/C: 93.9%
[7]
  viability, T/C: 70%
[8]
  viability, T/C: 84.7%
[25]
  viability, T/C: 85.5%
[26]
  viability, T/C: 81.1%
[27]
  viability, T/C: 78%
[28]
  viability, T/C: 104%
[9]
  viability, T/C: 95.7%
[10]
  viability, T/C: 87.8%
[29]
  viability, T/C: 98.2%
[30]
  viability, T/C: 105%
[31]
  viability, T/C: 92.3%
[32]
  viability, T/C: 95.8%
[11]
  viability, T/C: 0.39%
[12]
  viability, T/C: 0.43%
[33]
  viability, T/C: 0.37%
[34]
  viability, T/C: 0.34%
[35]
  viability, T/C: 0.39%
[36]
  viability, T/C: 0.41%
